The values that follow come from patent US20230022400A1, “IMMUNOMODULATORS” (Bristol-Myers Squibb Company, priority 2019, published 2023).

By IC50 is commonly meant the midpoint of a concentration-inhibition curve.

Where a SMILES comes first, the peptide text is derived from it. Bridges are numbered along the chain shown (N, C = ends). [ ]: non-standard residue; d: D form. The star is where a group is joined. Trp(1-CH2COOH) = N[C@@H](Cc1cn(CC(=O)O)c2ccccc12)C(=O)O; Hyp = O=C(O)[C@@H]1C[C@@H](O)CN1; X2 = CSc1nc(*)c2sc3ccccc3c2n1; NMeNle = CCCC[C@H](NC)C(=O)O; X18 = c1ccc(-c2ccnc(*)n2)cc1; X4 = c1nc(*)c2c3c(sc2n1)CCC3; NMeA = CN[C@@H](C)C(=O)O; X14 = Clc1cccc2sc(*)nc12; Dab = NCC[C@H](N)C(=O)O; Dap = NC[C@H](N)C(=O)O; X9 = Fc1cccc2sc(*)nc12

In this experiment the target is T1, PD-1/PD-L1 interaction (PD-1-Ig / PD-L1-His) (Homo sapiens, UniProt Q9NZQ7).
T1 construct: TVMV protease site (linker) (C); made in house; host or cells: HEK293T cells
T1 sequence (Q9NZQ7 18-239): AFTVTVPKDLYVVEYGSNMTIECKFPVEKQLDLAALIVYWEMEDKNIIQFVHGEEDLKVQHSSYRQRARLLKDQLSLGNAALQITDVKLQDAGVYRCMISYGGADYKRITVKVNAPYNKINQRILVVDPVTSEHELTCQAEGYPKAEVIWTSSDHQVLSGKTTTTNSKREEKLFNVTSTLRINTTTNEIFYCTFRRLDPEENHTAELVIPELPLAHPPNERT
The experiment can be described thus: PD-1/PD-L1 Homogenous Time-Resolved Fluorescence (HTRF) binding assay. To be noted: PD-L1-His 10 nM final, PD-1-Ig 20 nM final; inhibitors pre-incubated with PD-L1-His for 15 m. The text has this: The ability of the compounds of formula (I) to bind to PD-L1 was investigated using a PD-1/PD-L1 Homogenous Time-Resolved Fluorescence (HTRF) binding assay.
The interaction of PD-1 and PD-L1 can be assessed using soluble, purified preparations of the extracellular domains of the two proteins. The PD-1 and PD-L1 protein extracellular domains were expressed as fusion proteins with detection tags, for PD-1, the tag was the Fc portion of Immunoglobulin (PD-1-Ig) and for PD-L1 it was the 6 histidine motif (PD-L1-His). All binding studies were performed in an HTRF assay buffer consisting of dPBS supplemented with 0.1% […] bovine serum albumin and 0.05% (v/v) Tween-20. For the h/PD-L1-His binding assay, inhibitors were pre-incubated with PD-L1-His (10 nM final) for 15 m in 4 μl of assay buffer, followed by addition of PD-1-Ig (20 nM final) in 1 μl of assay buffer and further incubation for 15 m. HTRF detection was achieved using europium crypate-labeled anti-Ig (1 nM final) and allophycocyanin (APC) labeled anti-His (20 nM final). Antibodies were diluted in HTRF detection buffer and 5 μl was dispensed on top of the binding reaction. The reaction mixture was allowed to equilibrate for 30 minutes and the resulting signal (665 nm/620 nm ratio) was obtained using an EnVision fluorometer. Additional binding assays were established between the human proteins PD-1-Ig/PD-L2-His (20 & 5 nM, respectively) and CD80-His/PD-L1-Ig (100 & 10 nM, respectively).
Recombinant Proteins: Human PD-1 (25-167) with a C-terminal human Fc domain of immunoglobulin G (Ig) epitope tag [hPD-1 (25-167)-3S-IG] and human PD-L1 (18-239) with a C-terminal His epitope tag [hPD-L1(18-239)-TVMV-His] were expressed in HEK293T cells and purified sequentially by ProteinA affinity chromatography and size exclusion chromatography. Human PD-L2-His and CD80-His was obtained through commercial sources.
Table 1 lists the IC50 values for representative examples of this disclosure measured in the PD-1/PD-L1 Homogenous Time-Resolved Fluorescence (HTRF) binding assay.
With `CCCC[C@H]1C(=O)N(C)[C@@H](CCCC)C(=O)N[C@@H](CC(C)C)C(=O)N[C@H](C(=O)NCC(N)=O)CSCC(=O)N[C@@H](Cc2ccc(O)cc2)C(=O)N(C)[C@@H](C)C(=O)N[C@@H](CC(N)=O)C(=O)N2CCC[C@H]2C(=O)N[C@@H](CNc2nc(SC)nc3c2sc2ccccc23)C(=O)N[C@@H](CC(C)C)C(=O)N2C[C@H](O)C[C@H]2C(=O)N[C@@H](Cc2c[nH]c3ccccc23)C(=O)N[C@@H](CCNc2nc(SC)nc3c2sc2ccccc23)C(=O)N[C@@H](Cc2cn(CC(=O)O)c3ccccc23)C(=O)N1C` [Compound 21009] ({CH2CO}-Y[NMeA]NP[Dap](X2)L[Hyp]W[Dab](X2)[Trp(1-CH2COOH)][NMeNle][NMeNle]LCG-NH2; thioether N-14), the IC50 came to 136 nM.
With `CCCC[C@H]1C(=O)N(C)[C@@H](CCCC)C(=O)N[C@@H](CC(C)C)C(=O)N[C@H](C(=O)NCC(N)=O)CSCC(=O)N[C@@H](Cc2ccc(O)cc2)C(=O)N(C)[C@@H](C)C(=O)N[C@@H](CC(N)=O)C(=O)N2CCC[C@H]2C(=O)N[C@@H](CNc2nc3c(Cl)cccc3s2)C(=O)N[C@@H](CC(C)C)C(=O)N2C[C@H](O)C[C@H]2C(=O)N[C@@H](Cc2c[nH]c3ccccc23)C(=O)N[C@@H](CCNc2nc3c(Cl)cccc3s2)C(=O)N[C@@H](Cc2cn(CC(=O)O)c3ccccc23)C(=O)N1C` [Compound 11006] ({CH2CO}-Y[NMeA]NP[Dap](X14)L[Hyp]W[Dab](X14)[Trp(1-CH2COOH)][NMeNle][NMeNle]LCG-NH2; thioether N-14) the figure was 7.9 nM; with `CCCC[C@H]1C(=O)N(C)[C@@H](CCCC)C(=O)N[C@@H](CC(C)C)C(=O)N[C@H](C(=O)NCC(N)=O)CSCC(=O)N[C@@H](Cc2ccc(O)cc2)C(=O)N(C)[C@@H](C)C(=O)N[C@@H](CC(N)=O)C(=O)N2CCC[C@H]2C(=O)N[C@@H](CNc2nc3c(F)cccc3s2)C(=O)N[C@@H](CC(C)C)C(=O)N2C[C@H](O)C[C@H]2C(=O)N[C@@H](Cc2c[nH]c3ccccc23)C(=O)N[C@@H](CCNc2nc3c(F)cccc3s2)C(=O)N[C@@H](Cc2cn(CC(=O)O)c3ccccc23)C(=O)N1C` [Compound 11007] ({CH2CO}-Y[NMeA]NP[Dap](X9)L[Hyp]W[Dab](X9)[Trp(1-CH2COOH)][NMeNle][NMeNle]LCG-NH2; thioether N-14), 4 nM; with `CCCC[C@H]1C(=O)N(C)[C@@H](CCCC)C(=O)N[C@@H](CC(C)C)C(=O)N[C@H](C(=O)NCC(N)=O)CSCC(=O)N[C@@H](Cc2ccc(O)cc2)C(=O)N(C)[C@@H](C)C(=O)N[C@@H](CC(N)=O)C(=O)N2CCC[C@H]2C(=O)N[C@@H](CNc2nccc(-c3ccccc3)n2)C(=O)N[C@@H](CC(C)C)C(=O)N2C[C@H](O)C[C@H]2C(=O)N[C@@H](Cc2c[nH]c3ccccc23)C(=O)N[C@@H](CCN)C(=O)N[C@@H](Cc2cn(CC(=O)O)c3ccccc23)C(=O)N1C` [Compound 1006] ({CH2CO}-Y[NMeA]NP[Dap](X18)L[Hyp]W[Dab][Trp(1-CH2COOH)][NMeNle][NMeNle]LCG-NH2; thioether N-14), 11 nM.
Turning to `CCCC[C@H]1C(=O)N(C)[C@@H](CCCC)C(=O)N[C@@H](CC(C)C)C(=O)N[C@H](C(=O)NCC(N)=O)CSCC(=O)N[C@@H](Cc2ccc(O)cc2)C(=O)N(C)[C@@H](C)C(=O)N[C@@H](CC(N)=O)C(=O)N2CCC[C@H]2C(=O)N[C@@H](CNc2ncnc3sc4c(c23)CCC4)C(=O)N[C@@H](CC(C)C)C(=O)N2C[C@H](O)C[C@H]2C(=O)N[C@@H](Cc2c[nH]c3ccccc23)C(=O)N[C@@H](CCN)C(=O)N[C@@H](Cc2cn(CC(=O)O)c3ccccc23)C(=O)N1C` [Compound 21011] ({CH2CO}-Y[NMeA]NP[Dap](X4)L[Hyp]W[Dab][Trp(1-CH2COOH)][NMeNle][NMeNle]LCG-NH2; thioether N-14), the IC50 turned out to be 2.6 nM.
